Reference: paper PMC12044326 (Clinical Pharmacology in Drug Development, 2025)
Read-outs that look alike come from different tables or passages of the source.

Legend:
[1] = parameters: method as in earlier work; details: ref 7 of supplement, cited from earlier work
in vitro = in vitro ADME
Description: (§1) […]. […] […]. […] […]

UGT2B4 [2] = target: T1, UGT2B4 (Homo sapiens, UniProt P06133); parameters: with alamethicin-pretreated HLMs (0.5 mg/mL); tissue Sekisui-XenoTech; host or cells: pooled human liver microsomes (200 donors); details: predicted by combining in vitro phenotyping and human ADME data; cited from earlier work
T1 sequence (P06133 24-528): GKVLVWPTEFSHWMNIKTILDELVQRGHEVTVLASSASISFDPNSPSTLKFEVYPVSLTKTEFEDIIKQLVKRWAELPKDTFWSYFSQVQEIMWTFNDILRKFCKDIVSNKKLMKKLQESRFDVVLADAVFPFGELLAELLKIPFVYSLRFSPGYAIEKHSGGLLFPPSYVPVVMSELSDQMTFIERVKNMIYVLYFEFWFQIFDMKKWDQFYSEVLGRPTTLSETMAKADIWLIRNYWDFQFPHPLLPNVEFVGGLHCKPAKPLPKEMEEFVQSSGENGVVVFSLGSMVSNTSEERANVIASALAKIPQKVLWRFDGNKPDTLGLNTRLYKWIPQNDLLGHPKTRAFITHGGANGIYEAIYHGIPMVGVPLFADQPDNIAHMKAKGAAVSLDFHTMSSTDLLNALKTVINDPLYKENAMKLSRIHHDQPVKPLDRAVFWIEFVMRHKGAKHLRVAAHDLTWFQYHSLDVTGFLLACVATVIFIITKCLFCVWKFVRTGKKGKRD

CYP1A2 = details: hepatocytes
Description: respectively; XenoTech) were treated once daily for 3 consecutive days and cultured according
to previously described methods.2-4 Each culture well was treated with supplemented modified Chee's medium (0.2 mL) containing 0.1% v/v d imethylsulfoxide (DM SO ; vehicle control),
μmol/L) or 1 of 3 known human CYP enzyme inducers (omeprazole 50 μmol/L, phenobarbital
Cultures were visualized with a
representative well from each treatment group was photographed with a PAXcam 5 (MIS, Inc.
Villa Park, IL, USA) digital camera to document morphological integrity.
β-mercaptoethanol (1:100), and the cell lysates were stored at −80°C. For each hepatocyte preparation, media from 3 wells per treatment group were aspirated, and 250 μL buf f er RLT was added to each well. The cell lysates were mixed by shaking (10 minutes at 800 rpm) and total RNA was isolated with a MagMAX-96 (Ambion/ Thermo Fisher Scientific) for Microarrays Kit using the RNeasy Mini Kit (Qiagen Inc., Germantown, MD, USA). The analysis of RNA integrity was carried out with the RNA 6000 Nano Assay Kit on an Agilent 2100 Bioanalyzer (Agilent Technologies, Inc., Santa Clara, CA, USA). […]
prepared samples were stored at −20°C prior to analysis by quantitative real-time (qRT)- […]

CYP2C9 = CYP2C9 (Homo sapiens, UniProt P11712); test: Reversible CYP inhibition in human liver microsomes
UGT1A9 [3] = target: T2, UGT1A9 (Homo sapiens, UniProt O60656); test: PBPK elimination inputs (retrograde model, fm, KM sensitivity); details: PBPK input
T2 sequence (O60656 26-530): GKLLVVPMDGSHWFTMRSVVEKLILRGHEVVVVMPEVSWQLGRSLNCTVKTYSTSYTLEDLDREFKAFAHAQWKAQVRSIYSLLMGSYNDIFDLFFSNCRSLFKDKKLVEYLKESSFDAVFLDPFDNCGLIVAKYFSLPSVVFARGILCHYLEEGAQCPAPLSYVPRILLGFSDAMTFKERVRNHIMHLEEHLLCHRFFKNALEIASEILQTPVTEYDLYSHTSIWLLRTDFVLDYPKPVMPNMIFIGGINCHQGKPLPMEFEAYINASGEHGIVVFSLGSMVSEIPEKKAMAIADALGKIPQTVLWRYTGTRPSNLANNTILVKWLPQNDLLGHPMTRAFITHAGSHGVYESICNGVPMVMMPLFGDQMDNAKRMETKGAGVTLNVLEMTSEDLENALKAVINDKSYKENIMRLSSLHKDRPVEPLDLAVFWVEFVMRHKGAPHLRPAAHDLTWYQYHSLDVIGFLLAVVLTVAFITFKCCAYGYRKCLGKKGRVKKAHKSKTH

CYP2C8 = target: T3, CYP2C8 (Homo sapiens, UniProt P10632); test: Reversible CYP inhibition in human liver microsomes
T3 sequence (P10632 1-490): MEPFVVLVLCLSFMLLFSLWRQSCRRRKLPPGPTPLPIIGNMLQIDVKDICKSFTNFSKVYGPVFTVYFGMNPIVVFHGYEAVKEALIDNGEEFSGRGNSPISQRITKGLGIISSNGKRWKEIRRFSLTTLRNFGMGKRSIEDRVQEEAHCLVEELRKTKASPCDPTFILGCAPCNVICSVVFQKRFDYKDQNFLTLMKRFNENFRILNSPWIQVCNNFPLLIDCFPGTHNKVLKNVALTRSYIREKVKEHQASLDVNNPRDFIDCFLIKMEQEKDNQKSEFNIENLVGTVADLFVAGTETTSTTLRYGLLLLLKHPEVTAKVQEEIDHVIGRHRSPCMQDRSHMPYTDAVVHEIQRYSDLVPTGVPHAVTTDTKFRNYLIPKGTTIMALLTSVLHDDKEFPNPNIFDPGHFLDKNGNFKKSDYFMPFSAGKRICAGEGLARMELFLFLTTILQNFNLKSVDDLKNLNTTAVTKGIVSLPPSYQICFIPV

UGT2B4 [4] = target: T1, UGT2B4; test: PBPK elimination inputs (retrograde model, fm, KM sensitivity); details: PBPK input
CYP3A4 = details: predicted by combining in vitro phenotyping and human ADME data; cited from earlier work
UGT1A9 [5] = target: T2, UGT1A9; details: both, 20 min, pH 7.4
UGT2B4 [6] = target: T1, UGT2B4; details: both, 20 min, pH 7.4
physchem = assay type: physicochemical
Description: as §1

[7] = 100 mg QD, Day 1, geometric mean
[8] = 100 mg QD, Day 14, geometric mean
[9] = 300 mg QD, Day 1, geometric mean
[10] = 300 mg QD, Day 14, geometric mean
[11] = 400 mg QD, Day 1, geometric mean
[12] = 400 mg QD, Day 14, geometric mean

CYP2C9, sequence (P11712 whole entry): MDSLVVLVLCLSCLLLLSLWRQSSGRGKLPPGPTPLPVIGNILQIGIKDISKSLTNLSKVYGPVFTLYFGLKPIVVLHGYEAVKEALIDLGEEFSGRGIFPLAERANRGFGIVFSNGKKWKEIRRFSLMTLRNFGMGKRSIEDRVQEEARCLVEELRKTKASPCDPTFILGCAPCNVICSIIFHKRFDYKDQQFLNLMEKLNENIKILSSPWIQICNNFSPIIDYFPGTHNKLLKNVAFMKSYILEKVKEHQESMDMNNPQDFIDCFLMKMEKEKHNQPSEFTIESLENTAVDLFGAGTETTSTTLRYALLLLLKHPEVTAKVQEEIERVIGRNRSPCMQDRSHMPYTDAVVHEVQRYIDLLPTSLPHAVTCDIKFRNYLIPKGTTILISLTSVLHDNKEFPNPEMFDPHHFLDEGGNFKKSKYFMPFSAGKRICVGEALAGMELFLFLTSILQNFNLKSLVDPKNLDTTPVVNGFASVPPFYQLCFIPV

For `O=C(c1cccnc1-c1ccncc1)N1CCC(O)(Cc2ccccc2)CC1` [Soticlestat], the AUC0-24 observed [1, 7] is listed as 422 ng·h/mL, the Cmax observed [1, 7] is listed as 419 ng/mL and the tmax observed ([1]; 100 mg QD, Day 1, median) is listed as 25.2 min. For the same compound, the AUCtau observed [1, 8] was 443 ng·h/mL, the Cmax observed [1, 8] was 469 ng/mL and the tmax observed ([1]; 100 mg QD, Day 14, median) was 19.8 min. For the same compound, the AUC0-24 observed [1, 9] was 1798 ng·h/mL, the Cmax observed [1, 9] was 1729 ng/mL and the tmax observed ([1]; 300 mg QD, Day 1, median) was 25.2 min. The AUCtau observed [1, 10] was 2497 ng·h/mL, the Cmax observed [1, 10] was 2866 ng/mL and the tmax observed ([1]; 300 mg QD, Day 14, median) was 19.8 min. The AUC0-24 observed [1, 11] was 2283 ng·h/mL, the Cmax observed [1, 11] was 2374 ng/mL and the AUCtau observed [1, 12] was 2605 ng·h/mL. For the same compound, the Cmax observed [1, 12] was 2709 ng/mL, the Main binding protein (in vitro) was “AAG” and the fraction unbound (in vitro) was 0.066. The “fm by UGT2B4” value (UGT2B4 [2]) was 81.2%, the “induction of CYP1A2” value (CYP1A2) was “nor did soticlestat induce” and the Ki (CYP2C9) was 15.6 µM. For the same compound, the fumic (CYP2C9; human) was 0.88, the “inhibition of CYP2C9” value (CYP2C9; microsomes) was “low double‐digit micromolar values” and the fmUGT1A9 (UGT1A9 [3]) was 0.1. The Ki (CYP2C8) was 14.5 µM, the fumic (CYP2C8; human) was 0.98 and the “inhibition of CYP2C8” value (CYP2C8; microsomes) was “low double‐digit micromolar values”. The “time‐ or metabolism‐dependent inhibition” value (major CYP enzymes) was “did not exhibit time‐ or metabolism‐dependent inhibition”, the fmUGT2B4 (UGT2B4 [4]) was 0.8 and the “fm by CYP3A” value (CYP3A4) was 9.5%. For the same compound, the “fm of total UGT mediated glucuronidation via UGT1A9” value (UGT1A9 [5]) was roughly 10%, the “fm of total UGT mediated glucuronidation via UGT2B4” value (UGT2B4 [6]) was roughly 90% and the logP (physchem) was 1.4. For the same compound, the pKa (physchem) was 3.37 and the Compound type (physchem; PBPK input) was “Monoprotic base”.
